The values that follow come from patent publication US5468587A, “Hydrogen bond accepting groups on thermal solvents for image separation systems” (Eastman Kodak Company, priority 1993, dated 1995).

A short description of assay [1]: heat activated transfer of image dye (yellow coupler Y-1, developer CD-3) through gelatin interlayer to polymeric dye receiver, Status A blue density. As to conditions: 3 passes; coupler Y-1, CD-3. The method, then:
(§1) Heat Activated Image Transfer. Dried integral films are laminated with gelatin subbed ESTAR™ film base and passed through a set of heated rollers at 0.635 cm./sec. with roller surface temperatures of 110° C. and a pressure of 140 kPa. The two film bases are separated; the gelatin layers adhere to the gelatin subbed ESTAR™ base and are thus separated from the polymeric dye receiver layer and its support. Status A reflection densitometry is obtained on the polymeric dye-receiver layer coated on a reflective support. These density values determined with the appropriate Status A filter are given in Example 1 in Table III.
Thermal Solvent Test Employing a Yellow Dye Forming Coupler. Three film examples are prepared in a manner analogous to examples 1 and 2 above, using a yellow dye forming coupler, Y-1, and a blue sensitized cubic emulsion in place of M-1 and a green sensitized emulsion, respectively. […]
For all three example films the dye density transferred to the dye-receiverlayer in the absence of a thermal processing step (0-pass) is quite small indicating the absence of significant transfer under aqueous processing. […] For film example 15 in which the interlayer contains both gelatin and the thermal test material, TS-1, there is a substantial transfer of image dye as measured by the blue density. […]

The nature of assay [2]: heat activated transfer of image dye (yellow coupler Y-1, developer CD-2) through gelatin interlayer to polymeric dye receiver, Status A blue density. As to conditions: coupler Y-1, CD-2. The method, then:
as §1
Thermal Solvent Test Employing a Yellow Dye Forming Coupler. Three film examples are prepared in a manner analogous to examples 1 and 2 above, using a yellow dye forming coupler, Y-1, and a blue sensitized cubic emulsion in place of M-1 and a green sensitized emulsion, respectively. In this example TS-1 is compared with no added hydroxybenzene compound and with a hydroxybenzene without a hydrogen bond accepting functional group (CS-1). The thermal solvent [drawing 8] test layer is coated at gelatin laydown of 1.40 g/m^2 and a thermal solvent test compound at 1.30 g/m^2. The dye generating layer is coated at 1.40 g/m^2 of gelatin, 0.53 g/m^2 of coupler Y-1 and 0.38 g/m^2 of Ag. The photographic development and thermal processing is as described in example 2. […]

Assay [3] in a line: heat activated transfer of image dye (coupler M-1, developer CD-3) through gelatin interlayer to polymeric dye receiver, Status A green density. As to the method:
The following 17 examples are prepared to examine the ability of materials to effect the transfer of image dye through intervening layers of gelatin binder into a polymeric dye receiver layer and are described by the coating format shown in FIG. 2. The first layer (FIG. 2, layer 14) contains gelatin binder and the material to be tested as a thermal solvent while the upper layer (FIG. 2, layer 16) contains the image generating chemistry comprising a silver chloride emulsion and a dispersion of a dye generating coupler in a gelatin binder. A third, protective overcoat, layer (FIG. 2, layer 15) containing gelatin and hardener is applied over the first two gelatin test layers.
Examples 1 and 2 describe in detail the preparation of the solutions and dispersions used in these examples. Examples 3 and 4 describe the same film samples processed in a second developer. Example 1 contains no added material in the first gelatin layer. Example 2 is an example of a compound of our invention according to formula I.
Gelatin Interlayer Melt Preparation. This is an interlayer consisting of only gelatin that serves as a control for comparison of the effect of added materials on transfer of heat-transferable dyes through gelatin layers. […]

For `CCCCCCCCCCCCc1ccc(O)cc1` [CS-1], in assay [1], the “transfer of the integral dye density to receiver” value is listed as “less than 6%”. For the same molecule, the “transfer of the integral dye density to the receiver layer” value in assay [2] is given as “less than 4%”.

As to `CCCCCCCCCCS(=O)(=O)c1ccc(O)cc1` [TS-1, 4-n-Decylsulfonylphenol], the “transfer of the dye density in the original image” value is 45% in assay [3] (1-pass) and 71% in assay [3] (3-pass).
